Data published in US20250177467A1, “COMPOSITIONS AND METHODS FOR MODULATING NUCLEAR FACTOR OF ACTIVATED T-CELLS (NFAT) ACTIVITY OF T CELLS” (Yale University, priority 2022, published 2025).

What was measured:
[1] = system: Lck, Fyn, Zap70, LAT and Pyk2; assay: Western blot of protein phosphorylation of T cell receptor downstream cascades in Jurkat cells; format: cell-based; conditions: 45 min
Protocol: FIGS. 8A-8D are western blot analyses showing effects of YIV-906 (FIG. 8A), single herbs (FIG. 8A), the fractions of YIV-906 (FIG. 8B), P (FIG. 8C), and S (FIG. 8D) on protein phosphorylation of T cell receptor signaling cascades including, Lck, Fyn, Zap70, LAT and Pyk2. […] All eluted fractions were dried and reconstituted with water to equivalent concentration at 100 mg/ml. Jurkat cells were treated with YIV-906 (FIG. 8A), single herbs (FIG. 8A), the fractions of YIV-906 (FIG. 8B), P (FIG. 8C), and S (FIG. 8D) at equivalent dose 320 ug/ml for 45 min. Western blot analysis was used to determine the protein phosphorylation using specific antibodies. GAPDH was used to normalize the protein loading.
FIGS. 9A-9B show chemical identification of fractions of P (FIG. 9A) and S (FIG. 9B) after C18 column fractionation and their impacts on protein phosphorylation for Lck, Zap70, Lat, Fyn/Src, Pyk2. Equivalent concentration, 10 mg/ml, was used for LC-MS analysis. Equivalent concentration, 320 ug/ml for 45 min, was used for treating Jurkat cells for western blotting analysis. Identified chemicals (putative), based on their mass and mass of their fragments, were listed under each fraction. Non-identified chemical was not listed in this figure. Fraction could induce phosphorylation of specific protein was indicted as red upward arrow.
FIG. 10 show effects of S and P compounds on protein phosphorylation of T cell receptor signaling cascades including, Lck, Fyn, Zap70, LAT and Pyk2. Jurkat cells were treated with S and P compounds for 45 min. Western blot analysis was used to determine the protein phosphorylation using specific antibodies.
Jurkat-PD1 cells 10^6/ml were placed in 24 well plate treated with YIV-906 or its components herbs for 45 minutes. After spinning down the cells at 1000 g centrifugation for 10 min, red blood cells were lysed with 1 ml BD pharm lyse on ice. Cells were collected at 1000 g centrifugation for 10 min. 2×10^6 cells were used for each staining sample. The cells were prepared with 2X protein loading buffer (Tris pH 6.8 1M, SDS 1%, glycerol, B-mercaptoethanol, bromophenol blue, distilled water). The samples were then heated to 95° C. for 5 minutes to denature the proteins prior to western blot. SDS polyacrylamide gel electrophoresis (10% Mini-Protean TGX™ Precast Protein Gels, BioRad) was used to separate proteins according to their electrophoretic mobility. The protein extractions were deposited in the wells of the gel, 10 μL per well. The migration was performed in a 1X running buffer (Tris/Glycine/SDS) at 180 V for 50 minutes. The transfer of the proteins was performed on a PVDF membrane in the transfer buffer (Tris-CAPS AX, methanol, SDS 10%, distilled water) at 75 V for 1 hour. The non-specific binding sites on the PVDF membrane were blocked with a blocking solution (3% milk powder and 1X TBS-T) for 30 minutes. Then, the PVDF membrane was incubated with the primary antibody against the proteins of interest overnight at 4° C. The information of primary antibodies is as follows: P-Lck-Y394 (Biolegend, #933101), P-Zap70-Y319 (Cell signaling, #2717), P-LAT-Y191 (Cell signaling, #3584) P-SRC (Fyn) Y416 (Cell, signaling, #6943), P-Pyk2-Y402 (Cell signaling, 3291), GAPDH (Cell Signaling, #5174). […] Image-J was used to quantify the total intensity of immunoreactive bands. […]

[2] = target: T1, SHP2 (Homo sapiens, UniProt Q06124); assay: SHP2 activity, p-Nitrophenyl Phosphate (pNPP) colorimetric assay; format: biochemical; conditions: 40 uM
T1 sequence (Q06124 1-593): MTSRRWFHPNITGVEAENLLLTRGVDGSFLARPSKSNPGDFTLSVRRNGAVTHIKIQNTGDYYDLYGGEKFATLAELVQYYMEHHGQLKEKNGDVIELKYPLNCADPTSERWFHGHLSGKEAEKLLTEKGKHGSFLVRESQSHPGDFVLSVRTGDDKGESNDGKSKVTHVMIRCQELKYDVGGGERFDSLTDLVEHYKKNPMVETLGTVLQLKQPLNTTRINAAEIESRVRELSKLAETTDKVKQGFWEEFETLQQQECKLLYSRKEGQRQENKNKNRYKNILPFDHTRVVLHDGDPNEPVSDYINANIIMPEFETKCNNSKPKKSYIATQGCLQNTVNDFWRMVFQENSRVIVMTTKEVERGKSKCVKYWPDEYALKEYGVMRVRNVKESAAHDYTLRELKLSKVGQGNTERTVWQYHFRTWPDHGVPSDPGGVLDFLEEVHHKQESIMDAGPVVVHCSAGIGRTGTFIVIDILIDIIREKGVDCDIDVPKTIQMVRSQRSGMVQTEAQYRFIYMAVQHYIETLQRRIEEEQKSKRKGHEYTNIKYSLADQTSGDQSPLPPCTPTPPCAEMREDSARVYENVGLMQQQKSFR

[3] = system: NFAT mediated transcriptional activity of Jurkat cells; assay: NFAT luciferase reporter in Jurkat(-PD1) cells co-cultured with wild type Raji or Raji-PD-L1 cells without or with SEE; format: cell-based; conditions: for modulation effect on basal NFAT activity: absence of SEE, wild type Raji or PD-L1 over-expressed Raji cells; for inhibition on NFAT activity of Jurkat cells: presence of SEE; for modulation of basal NFAT activity: S compounds up to 40 uM; for inhibition of SEE triggered NFAT activity: at 20 to 40 uM, SEE 10 ng/ml
[4] = system: NFAT mediated transcriptional activity of Jurkat-PD1 TCRαβ knockout cells; assay: NFAT luciferase reporter in TCRαβ knockout Jurkat-PD1 cells; format: cell-based
[5] = target: CD19 naturally expressed on the cell surface of Raji cells (UniProt P15391); assay: cell-based or functional assay
Sequence of CD19 naturally expressed on the cell surface of Raji cells (P15391 20-556 limits assumed): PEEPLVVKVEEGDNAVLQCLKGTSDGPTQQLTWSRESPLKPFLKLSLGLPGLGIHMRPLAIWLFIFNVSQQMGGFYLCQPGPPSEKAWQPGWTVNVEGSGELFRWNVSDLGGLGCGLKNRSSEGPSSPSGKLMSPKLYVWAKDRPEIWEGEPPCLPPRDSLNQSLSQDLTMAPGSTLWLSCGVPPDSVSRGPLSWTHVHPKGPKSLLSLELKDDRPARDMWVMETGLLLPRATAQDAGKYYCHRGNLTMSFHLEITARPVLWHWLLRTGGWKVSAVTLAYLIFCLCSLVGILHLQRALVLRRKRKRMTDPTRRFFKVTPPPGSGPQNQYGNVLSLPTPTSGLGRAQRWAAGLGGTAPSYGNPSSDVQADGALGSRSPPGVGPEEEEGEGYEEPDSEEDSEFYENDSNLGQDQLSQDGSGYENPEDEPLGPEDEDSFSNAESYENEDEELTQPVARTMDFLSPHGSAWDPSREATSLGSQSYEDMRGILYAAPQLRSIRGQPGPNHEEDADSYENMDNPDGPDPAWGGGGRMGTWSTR

[6] = Jurkat-PD1 with wild type Raji or PD-L1 over-expressed Raji cells, without SEE

In the case of `C[C@]12C[C@@H](O)[C@@H]3C[C@@]1(O[C@@H]1O[C@H](CO)[C@@H](O)[C@H](O)[C@H]1O)[C@@]3(COC(=O)c1ccccc1)C(=O)O2` [Albiforin], the “inducing P-Zap70-Y319 and P-Pyk2-Y402” value [1] is reported as “some effect”.
With `O=C(O)[C@H]1O[C@@H](Oc2cc3oc(-c4ccccc4)cc(=O)c3c(O)c2O)[C@H](O)[C@@H](O)[C@@H]1O` [Baicalin] the “induction effect on P-Zap70-Y319, P-SRC (Fyn)-Y416 and P-Pyk2-Y402” value ([1]; 40 uM) was “some induction effect” and the “inhibitory effect on SHP2, S compounds” value [2] was “showed inhibitory effect on SHP2”.
For `CC1(C)[C@@H](O[C@H]2O[C@H](C(=O)O)[C@@H](O)[C@H](O)[C@H]2O[C@@H]2O[C@H](C(=O)O)[C@@H](O)[C@H](O)[C@H]2O)CC[C@]2(C)[C@H]3C(=O)C=C4[C@@H]5C[C@@](C)(C(=O)O)CC[C@]5(C)CC[C@@]4(C)[C@]3(C)CC[C@@H]12` [Glycyrrhizic acid], the “inhibitory effect on SHP2, G compounds” value [2] was “relatively higher inhibitory effects on SHP2 than other G compounds”.
In the case of `O=C(/C=C/c1ccc(O)cc1)c1ccc(O)cc1O` [Isoliquiritigenin], the “modulation effect on basal NFAT activity” value ([3]; 10 uM) is reported as “some modulation effect” and the “inhibition on NFAT activity of Jurkat cells” value (shortened to “inhibition on NFAT activity”) ([3]; 40 uM) is reported as “showed inhibition on NFAT activity”.
For `COc1ccc2c(c1O)-c1c(O)c(OC)cc3c1[C@H](C2)[N+](C)(C)CC3` [Magnoflorine], the “inhibition on NFAT activity” value ([3]; Z compound up to 40 uM) was “showed inhibition on NFAT activity”.
`C[C@@]12C[C@@]3(O)O[C@@H](O1)[C@]1(COC(=O)c4ccccc4)[C@H]3C[C@@]12O[C@@H]1O[C@H](CO)[C@@H](O)[C@H](O)[C@H]1O` [Paeoniforin] was tested, and the “inducing P-Zap70-Y319 and P-Pyk2-Y402” value [1] was “some effect”.
For `O=c1cc(-c2ccccc2)oc2cc(O)c(O)c(O)c12` [baicalein], the “modulation of basal NFAT activity” value [3, 6] was “could modulate the basal NFAT activity”, the “inhibition of SEE triggered NFAT activity” value [3] was “could inhibit SEE triggered NFAT activity” and the “impact on NFAT activity, Jurkat-PD1 versus Jurkat-PD1 TCRαβ KO cells” value [4] was “very similar impact on NFAT activity”. For the same compound, the “induction of protein phosphorylation of all examined proteins (Lck, Zap70, LAT, Fyn, Pyk2)” value ([1]; 40 uM) was “could strongly induce protein phosphorylation of all examined proteins” and the “inhibitory effect on SHP2, S compounds” value [2] was “showed inhibitory effect on SHP2”.
In the case of `COc1c(CC=C(C)C)c(O)cc2oc(=O)c(-c3ccc(O)cc3O)cc12` [glycycoumarin], the “modulation effect on basal NFAT activity” value ([3]; 10 uM) is reported as “some modulation effect”.
In the case of `CC1(C)[C@@H](O)CC[C@]2(C)[C@H]3C(=O)C=C4[C@@H]5C[C@@](C)(C(=O)O)CC[C@]5(C)CC[C@@]4(C)[C@]3(C)CC[C@@H]12` [glycyrrhetinic acid], the “inhibitory effect on SHP2, G compounds” value [2] is reported as “relatively higher inhibitory effects on SHP2 than other G compounds”.
`C=CC(C)(C)c1cc(/C=C/C(=O)c2ccc(O)cc2)c(OC)cc1O` [licochalcone A] was tested, and the “inhibition on NFAT activity” value ([3]; 40 uM) was “showed inhibition on NFAT activity” and the “modulation effect on basal NFAT activity” value ([3]; 10-20 uM) was “some modulation effect”.
With `O=C1C[C@@H](c2ccc(O)cc2)Oc2cc(O)ccc21` [liquiritigenin] the “modulation effect on basal NFAT activity” value ([3]; 40 uM) was “some modulation effect”.
In the case of `O=C1C[C@@H](c2ccc(O[C@@H]3O[C@H](CO)[C@@H](O)[C@H](O)[C@H]3O)cc2)Oc2cc(O)ccc21` [liquiritin], the “modulation effect on basal NFAT activity” value ([3]; 20 uM) is reported as “some modulation effect”.
In the case of `COc1c(O[C@@H]2O[C@H](C(=O)O)[C@@H](O)[C@H](O)[C@H]2O)cc2oc(-c3ccccc3)cc(=O)c2c1O` [oroxylin A 7-O-beta-D-glucuronide], the “modulation of basal NFAT activity” value [3, 6] is reported as “could modulate the basal NFAT activity”, the “dose required to achieve 2-fold activity of NFAT” value ([3]; basal, without SEE, Jurkat-PD1 with wild type Raji or PD-L1 over-expressed Raji cells) is reported as 40 µM and the “impact on NFAT activity, Jurkat-PD1 versus Jurkat-PD1 TCRαβ KO cells” value [4] is reported as “very similar impact on NFAT activity”. For the same compound, the “induction effect on P-Zap70-Y319, P-SRC (Fyn)-Y416 and P-Pyk2-Y402” value ([1]; 40 uM) was “some induction effect” and the “inhibitory effect on SHP2, S compounds” value [2] was “showed inhibitory effect on SHP2”.
In the case of `COc1c(O)cc2oc(-c3ccccc3)cc(=O)c2c1O` [oroxylin A], the “modulation of basal NFAT activity” value [3, 6] is reported as “could modulate the basal NFAT activity”, the “inhibition of SEE triggered NFAT activity” value [3] is reported as “could inhibit SEE triggered NFAT activity” and the “impact on NFAT activity, Jurkat-PD1 versus Jurkat-PD1 TCRαβ KO cells” value [4] is reported as “very similar impact on NFAT activity”. The “inhibitory effect on SHP2, S compounds” value [2] was “showed inhibitory effect on SHP2”.
`COc1c(O[C@@H]2O[C@H](C(=O)O)[C@@H](O)[C@H](O)[C@H]2O)cc(O)c2c(=O)cc(-c3ccccc3)oc12` [wogonoside] was tested, and the “inhibitory effect on SHP2, S compounds” value [2] was “showed inhibitory effect on SHP2”.
In the case of “Anti-PD1: antibody produced from Nivolumab clone; InVivoSIM anti-human PD-1 (Nivolumab Biosimilar)”, the “rescue of depressed NFAT activity (due to the interaction of PD1 and PD-L1) in Jurkat-PD1 cells” value ([3]; Raji-PD-L1 cells, SEE 10 ng/ml or 30 ng/ml, YIV-906 160 ug/ml, nivolumab biosimilar 18 ug/ml) is reported as “rescued the depressed NFAT activity”.
“chimeric antigen receptor (CAR-CD19-CD3zeta) on Jurkat-PD1 NFAT-luc cells” showed an NFAT activity of Jurkat-PD1 CAR-CD19 cells co-cultured with Raji (NFAT luciferase reporter) [5] of 40 fold.
